Measured values taken from patent US10632174B2, “B7-H1 fusion polypeptides for treating and preventing organ failure” (Fraunhofer-Gesellschaft zur Förderung der angewandten …, priority 2015, dated 2020).

What was measured:
[1] = tested on: B7-H1 expression in Hepa1-6 cells; test: B7-H1 mRNA (qPCR) and protein (Western) expression in Hepa1-6 cells; format: cell-based, murine; settings: 100 ng/ml LPS with 10 mM NAC, FIG. 7 vs FIG. 3B
Experimental: FIG. 3: B7-H1 expression in Hepa1-6 cells following LPS or LTA stimulation. Hepa1-6 cells were stimulated for the indicated times with 100 ng/ml LPS or 100 ng/ml LTA. Afterwards cells were harvested and mRNA was isolated or protein lysates were prepared as described in Materials and Methods. mRNA expression of B7-H1 (A) was analyzed by quantitative PCR. 18s rRNA was used as a house keeping gene. (B) B7-H1 protein expression following LPS stimulation was determined by Western analysis. All experiments were performed at least five times. Data represent the mean±SD (*p<0.5) or show a representative blot.
FIG. 7: B7-H1 expression was restored adding the GSH precursor N-acetyl-cysteine (NAC). Hepa1-6 cells were stimulated for the indicated times with 100 ng/ml LPS with 10 mM NAC. Afterwards cells were harvested and protein lysates were prepared as described in Materials and Methods. B7-H1 protein expression was determined by Western analysis. All experiments were performed at least five times. […]
LPS and LTA act via different Toll-like receptors (TLRs) on target cells i.e. TLR2 for LTA and TLR4 for LPS. […] To investigate whether a ROS-dependent mechanism was responsible for the reduction of B7-H1, ROS formation was determined in Hepa 1-6 cells treated with LPS alone or in combination with N-acetylcysteine (NAC). […]
B7-H1, B7-DC, PD-1, Fas and EGFP expression were analyzed by Western analysis. […]

[2] = tested on: B7-H1 surface expression in Hepa1-6 cells (Nox4 inhibition); test: B7-H1 surface expression in Hepa1-6 cells by FACS; format: cell-based, murine; settings: 10 μM, 24 h, no further treatment, FIG. 8A
Experimental: FIG. 8: Inhibition of Nox4 enhances B7-H1 expression. Hepa1-6 cells were treated with the Nox4-specific inhibitor GKT137831 [10 μM] for 24 h. Afterwards, cells were harvested and B7-H1 expression was determined by FACS analysis. A quantification of five independent experiments is provided in (A). In liver homogenates of global NOX4 knockout mice B7-H1 protein expression was examined by Western blotting (B). A representative blot is shown. A quantification of B7-H1 expression (WT vs. NOX4-KO; n=5/5; *p<0.5) is provided in (C). B7-H1 expression on hepatocytes following polymicrobial sepsis initiation by cecal ligation and puncture (CLP) was studied in liver single cell suspensions by FACS-analysis gating for CD45-, i.e. non-immune cells as described in Materials and Methods. A quantification is shown (D), (sham vs. CLP, WT sham is set as 1; n=5/5/5/5; *p<0.5). Liver damage in global NOX4 knockout mice following CLP operation is assessed by looking at ALT/AST release into the serum, which is determined with a Reflotron Plus […] analyzer (E) (NOX4-KO; sham vs. CLP; n=5/5, *p<0.5). […]
All antibodies and secondary reagents were titrated to optimal concentrations. […] Surface expression of B7-H1 and B7-DC on the surface of primary hepatocytes was determined by FACS analysis, using anti-B7-H-PE or anti-B7-DC-PE. […]

SMILES | B7-H1 protein expression [1] | increase of B7-H1 surface expression [2]
CC(=O)N[C@@H](CS)C(=O)O [NAC, N-acetylcysteine] | restored expression of B7-H1 | –
CN(C)c1cccc(-c2c3c(=O)n(-c4ccccc4Cl)[nH]c3cc(=O)n2C)c1 [GKT137S31] | – | roughly 50%
